Experimental data taken from publication PMC4383003, “Transfer hydrogenation catalysis in cells as a new approach to anticancer drug design” (Nature Communications, 2015).

Test system: MRC5 human fetal lung fibroblasts
Assay: In vitro growth inhibition assay (SRB), MRC5
Format: cell-based
Method: A2780 human ovarian carcinoma and MRC5 human fetal lung fibroblasts were obtained from the European Collection of Cell Cultures. Both cell lines were grown in Roswell Park Memorial Institute medium (RPMI-1640) supplemented with 10% of fetal calf serum, 1% of 2 mM glutamine and 1% penicillin/streptomycin. All cells were grown as adherent monolayers at 310 K in a 5% CO2-humidified atmosphere and passaged at ca. 70–80% confluency.
The antiproliferative activity of complexes 1–8 was determined in A2780 ovarian cancer cells and MRC5 fibroblasts. Briefly, 96-well plates were used to seed 5,000 cells per well. The plates were left to pre-incubate with drug-free medium at 310 K for 48 h before adding different concentrations of the compounds to be tested. A drug exposure period of 24 h was allowed. After this, supernatants were removed by suction and each well was washed with PBS. […]
Supplementary Table 10: Antiproliferative activity of complex 2 in A2780 ovarian cancer cells and normal MRC5 human fetal lung fibroblasts, when co-administered with different concentrations of sodium formate (0 and 2 mM). All the experiments were performed as duplicates of triplicates in independent experiments and the error bars were calculated as the standard deviation from the mean. […]

Cc1ccc(C(C)C)cc1.Cc1ccc(S(=O)(=O)[N-]CCN)cc1.[Cl-].[Ru+2] [Complex 2, [(p-cym)Ru(TsEn)Cl]]
IC50 (MRC5, formate 0 mM): 48.5 ± 0.4 µM
selectivity factor (ratio MRC5 fibroblasts / A2780, no formate): 3.6±0.2
